Measured values reported in patent US4414216A, “Tetrahydrofuran compounds and analogs thereof” (Yoshitomi Phamaceutical Industries, Ltd., priority 1981, dated 1983).
Where two headings read alike, the source gives them in different places.

What was measured:
[1] = test system: Motor activity (apomorphine hydrochloride); assay: Antiapomorphine effect, Experiment 1: motor activity (Automex) after apomorphine; assay type: in vivo, male dd mice; conditions: 30 mg/kg intraperitoneal, 30 min before 0.5 mg/kg s.c. apomorphine hydrochloride, activity during 30 minutes, control 566
Protocol: (§1) Antiapomorphine effect was measured by the following methods.
Motor activity was measured with Automex (Columbus Instruments, U.S.A.) in two groups of 3 male dd mice. Thirty minutes after intraperitoneal administration of each test compound (30 mg/kg), 0.5 mg/kg of apomorphine hydrochloride was injected subcutaneously. Immediately after the apomorphine injection, the animals were placed in the transparent plastic cage (26×42×20 cm) and motor activity during 30 minutes was measured. Student's was calculated to indicate the level of significance of the change from control.

[2] = test system: Motor activity (apomorphine hydrochloride); assay: Antiapomorphine effect, Experiment 2: motor activity (Animex) after apomorphine, ED50; assay type: in vivo, male dd mice; conditions: Mus musculus, read-out: ED50 (dose which reduced the motor activity by 50% as compared with control)
Protocol: as §1
Motor activity was measured with Animex (Columbus Instruments, U.S.A.) in three groups of 5 male dd mice. Sixty minutes after oral administration of each test compound, 0.5 mg/kg of apomorphine hydrochloride was injected subcutaneously. The measurement of motor activity during 20 minutes started just after the apomorphine injection. ED50 was determined graphically as the dose which reduced the motor activity by 50% as compared with control.

Row | SMILES | Motor Activity [1] | ED50 ([2]; po) | ED50 ([2]; Experiment 2, oral, 60 min before 0.5 mg/kg s.c. apomorphine hydrochloride, activity during 20 minutes)
1 | O=c1[nH]c2ccccc2n1C1CCN(CC2COC(c3ccc(F)cc3)C2)CC1 (stereo not shown) [B] | 4 | 2.8 mg/kg | –
2 | O=c1[nH]c2cc(Cl)ccc2n1C1CCN(C[C@@H]2CO[C@H](c3ccc(F)cc3)C2)CC1 (relative stereo) [F] | 5 | 2.4 mg/kg | –
3 | O=C1NCN(c2ccccc2)C12CCN(CC1COC(c3ccc(F)cc3)C1)CC2 (stereo not shown) [C] | 0 | 1.4 mg/kg | –
4 | O=c1[nH]c2cc(Cl)ccc2n1C1CCN(CC2CCC(c3ccc(F)cc3)O2)CC1 (stereo not shown) [H] | 5 | 12 mg/kg | –
5 | Fc1ccc(C2CC(CN3CCC(n4c(=S)[nH]c5ccccc54)CC3)CO2)cc1 (stereo not shown) [A] | 1 | 3.2 mg/kg | –
6 | O=c1[nH]c2cc(Cl)ccc2n1C1CCN(CC2COC(c3ccc(F)cc3)C2)CC1 (stereo not shown) [E] | 23 | 0.4 mg/kg | –
7 | O=c1[nH]c2cc(Cl)ccc2n1C1CCN(C[C@H]2CO[C@H](c3ccc(F)cc3)C2)CC1 (relative stereo) [G] | 8 | 0.9 mg/kg | –
8 | O=C1CCN(C2CCN(CC3COC(c4ccc(F)cc4)C3)CC2)C(=O)N1c1ccccc1 (stereo not shown) [D] | 28 | – | 25 mg/kg
